ChEMBL document CHEMBL5316339, “Discovery of a Series of Substituted 1H-((1,2,3-Triazol-4-yl)methoxy)pyrimidines as Brain Penetrants and Potent GluN2B-Selective Negative Allosteric Modulators” (J Med Chem, 2023)
In brackets after ≈: the same amount, converted by molar mass.

Key:
[1] = biological target: Glutamate NMDA receptor; GRIN1/GRIN2B (Homo sapiens, UniProt Q05586+Q13224); assay: Negative allosteric modulation of human GluN1A/GluN2B receptor expressed in T-REX-CHO cells preincubated for 5 mins followed by glutamate and glycine addition and measured after 5 mins by FLIPR assay; format: cell-based
[2] = biological target: Glutamate receptor ionotropic, NMDA 2B (Rattus norvegicus, UniProt Q00960); assay: Displacement of 3-(3H) 1-(azetidin-1-yl)-2-(6- (4-fluoro-3-methyl-phenyl)pyrrolo-[…] pyridin-1yl)ethanone from GluN2B receptor in rat cortical membrane assessed as inhibition constant incubated for 2 hrs under shaking condition by liquid scintillator counter analysis; format: cell membranes, Cortex
MDR1 (P-gp) = assay: Efflux ratio of apparent permeability from basolateral to apical side over apical to basolateral side in MDCK-MDR1 cells at 5 uM incubated for 60 mins by LC-MS/MS analysis; format: ADME, cell-based, Canis lupus familiaris; settings: dog
[3] = biological target: Voltage-gated inwardly rectifying potassium channel KCNH2 (Homo sapiens, UniProt Q12809); assay: Displacement of [3H]dofetilide from human ERG expressed in HEK293 cells; format: toxicity, cell-based
Cytochrome P450 2C19 = Cytochrome P450 2C19 (Homo sapiens, UniProt P33261); assay: Inhibition of CYP2C19 in human liver microsomes incubated for 10 mins by LC-MS/MS analysis; format: ADME, Microsome
[4] = Thermodynamic solubility in aqueous phosphate buffer at pH 2; format: physicochemical; settings: read-out: Therm_solubility
[5] = Thermodynamic solubility in aqueous phosphate buffer at pH 7; format: physicochemical; settings: read-out: Therm_solubility
Cytochrome P450 1A2 = biological target: T1, Cytochrome P450 1A2 (Homo sapiens, UniProt P05177); assay: Inhibition of CYP1A2 in human liver microsomes incubated for 10 mins by LC-MS/MS analysis; format: ADME, Microsome
T1 sequence (P05177 whole entry): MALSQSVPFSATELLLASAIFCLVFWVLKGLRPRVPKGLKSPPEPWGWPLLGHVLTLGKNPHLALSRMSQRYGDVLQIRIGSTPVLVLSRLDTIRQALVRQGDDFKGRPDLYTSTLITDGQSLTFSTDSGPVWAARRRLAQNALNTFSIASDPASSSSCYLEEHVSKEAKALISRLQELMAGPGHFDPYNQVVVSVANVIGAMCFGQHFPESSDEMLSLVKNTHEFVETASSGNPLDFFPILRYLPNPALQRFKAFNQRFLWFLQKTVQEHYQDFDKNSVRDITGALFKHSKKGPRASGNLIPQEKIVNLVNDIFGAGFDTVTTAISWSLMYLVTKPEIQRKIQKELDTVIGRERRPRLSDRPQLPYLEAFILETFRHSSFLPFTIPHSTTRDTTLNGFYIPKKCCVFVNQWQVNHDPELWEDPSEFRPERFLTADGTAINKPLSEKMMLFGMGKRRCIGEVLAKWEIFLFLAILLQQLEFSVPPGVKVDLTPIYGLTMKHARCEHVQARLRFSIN

Cytochrome P450 2C8 = biological target: T2, Cytochrome P450 2C8 (Homo sapiens, UniProt P10632); assay: Inhibition of CYP2C8 in human liver microsomes incubated for 10 mins by LC-MS/MS analysis; format: ADME, Microsome
T2 sequence (P10632 whole entry): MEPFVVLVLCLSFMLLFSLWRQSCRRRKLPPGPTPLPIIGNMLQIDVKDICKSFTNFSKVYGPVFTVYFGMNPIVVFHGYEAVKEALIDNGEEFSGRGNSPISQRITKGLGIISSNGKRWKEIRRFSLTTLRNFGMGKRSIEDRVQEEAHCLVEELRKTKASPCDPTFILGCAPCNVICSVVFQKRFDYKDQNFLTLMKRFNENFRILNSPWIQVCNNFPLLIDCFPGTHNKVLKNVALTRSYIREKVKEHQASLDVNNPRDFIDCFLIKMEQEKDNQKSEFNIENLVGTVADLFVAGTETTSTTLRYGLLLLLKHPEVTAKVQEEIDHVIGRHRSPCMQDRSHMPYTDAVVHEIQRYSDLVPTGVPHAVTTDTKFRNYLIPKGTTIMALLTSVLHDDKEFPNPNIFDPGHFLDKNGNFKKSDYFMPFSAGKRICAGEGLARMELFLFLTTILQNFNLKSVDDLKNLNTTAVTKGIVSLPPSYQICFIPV

Cytochrome P450 2C9 = Cytochrome P450 2C9 (Homo sapiens, UniProt P11712); assay: Inhibition of CYP2C9 in human liver microsomes incubated for 10 mins by LC-MS/MS analysis; format: ADME, Microsome
Cytochrome P450 2D6 = Cytochrome P450 2D6 (Homo sapiens, UniProt P10635); assay: Inhibition of CYP2D6 in human liver microsomes incubated for 10 mins by LC-MS/MS analysis; format: ADME, Microsome
Cytochrome P450 3A4 = Cytochrome P450 3A4 (Homo sapiens, UniProt P08684); assay: Inhibition of CYP3A4 in human liver microsomes incubated for 10 mins by LC-MS/MS analysis; format: ADME, Microsome
[6] = Metabolic stability in human liver microsomes assessed as extraction ratio; format: ADME, Microsome; settings: read-out: ERH
[7] = Metabolic stability in rat liver microsomes assessed as extraction ratio; format: ADME, Microsome; settings: read-out: ERH

Cytochrome P450 2D6, sequence (P10635 whole entry): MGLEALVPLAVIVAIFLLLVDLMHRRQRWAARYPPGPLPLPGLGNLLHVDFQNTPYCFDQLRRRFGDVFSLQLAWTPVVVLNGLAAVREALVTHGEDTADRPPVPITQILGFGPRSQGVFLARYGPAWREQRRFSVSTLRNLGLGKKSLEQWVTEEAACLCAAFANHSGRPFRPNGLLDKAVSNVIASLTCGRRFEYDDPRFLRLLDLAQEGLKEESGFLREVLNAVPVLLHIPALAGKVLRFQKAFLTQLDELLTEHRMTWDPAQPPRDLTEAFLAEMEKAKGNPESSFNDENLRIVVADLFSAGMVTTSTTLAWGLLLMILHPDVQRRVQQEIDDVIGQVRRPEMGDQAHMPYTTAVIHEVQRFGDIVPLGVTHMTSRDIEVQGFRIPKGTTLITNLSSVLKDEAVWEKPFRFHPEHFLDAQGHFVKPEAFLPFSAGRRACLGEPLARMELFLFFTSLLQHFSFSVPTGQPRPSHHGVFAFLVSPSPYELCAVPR
Cytochrome P450 2C19, sequence (P33261 whole entry): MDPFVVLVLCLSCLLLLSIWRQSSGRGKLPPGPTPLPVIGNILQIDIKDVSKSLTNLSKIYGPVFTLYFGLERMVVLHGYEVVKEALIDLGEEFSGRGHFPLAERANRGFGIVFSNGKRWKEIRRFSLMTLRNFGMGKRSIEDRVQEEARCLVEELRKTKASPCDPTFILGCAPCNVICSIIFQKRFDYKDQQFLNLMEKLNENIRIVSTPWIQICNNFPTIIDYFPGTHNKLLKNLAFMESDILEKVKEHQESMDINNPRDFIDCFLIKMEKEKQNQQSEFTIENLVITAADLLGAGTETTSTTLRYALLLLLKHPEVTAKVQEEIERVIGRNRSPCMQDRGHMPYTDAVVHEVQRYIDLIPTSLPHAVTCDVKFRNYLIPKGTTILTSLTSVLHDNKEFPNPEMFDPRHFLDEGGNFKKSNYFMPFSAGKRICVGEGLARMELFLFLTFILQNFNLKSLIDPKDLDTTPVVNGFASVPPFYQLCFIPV
Glutamate receptor ionotropic, NMDA 2B, sequence (Q00960 whole entry): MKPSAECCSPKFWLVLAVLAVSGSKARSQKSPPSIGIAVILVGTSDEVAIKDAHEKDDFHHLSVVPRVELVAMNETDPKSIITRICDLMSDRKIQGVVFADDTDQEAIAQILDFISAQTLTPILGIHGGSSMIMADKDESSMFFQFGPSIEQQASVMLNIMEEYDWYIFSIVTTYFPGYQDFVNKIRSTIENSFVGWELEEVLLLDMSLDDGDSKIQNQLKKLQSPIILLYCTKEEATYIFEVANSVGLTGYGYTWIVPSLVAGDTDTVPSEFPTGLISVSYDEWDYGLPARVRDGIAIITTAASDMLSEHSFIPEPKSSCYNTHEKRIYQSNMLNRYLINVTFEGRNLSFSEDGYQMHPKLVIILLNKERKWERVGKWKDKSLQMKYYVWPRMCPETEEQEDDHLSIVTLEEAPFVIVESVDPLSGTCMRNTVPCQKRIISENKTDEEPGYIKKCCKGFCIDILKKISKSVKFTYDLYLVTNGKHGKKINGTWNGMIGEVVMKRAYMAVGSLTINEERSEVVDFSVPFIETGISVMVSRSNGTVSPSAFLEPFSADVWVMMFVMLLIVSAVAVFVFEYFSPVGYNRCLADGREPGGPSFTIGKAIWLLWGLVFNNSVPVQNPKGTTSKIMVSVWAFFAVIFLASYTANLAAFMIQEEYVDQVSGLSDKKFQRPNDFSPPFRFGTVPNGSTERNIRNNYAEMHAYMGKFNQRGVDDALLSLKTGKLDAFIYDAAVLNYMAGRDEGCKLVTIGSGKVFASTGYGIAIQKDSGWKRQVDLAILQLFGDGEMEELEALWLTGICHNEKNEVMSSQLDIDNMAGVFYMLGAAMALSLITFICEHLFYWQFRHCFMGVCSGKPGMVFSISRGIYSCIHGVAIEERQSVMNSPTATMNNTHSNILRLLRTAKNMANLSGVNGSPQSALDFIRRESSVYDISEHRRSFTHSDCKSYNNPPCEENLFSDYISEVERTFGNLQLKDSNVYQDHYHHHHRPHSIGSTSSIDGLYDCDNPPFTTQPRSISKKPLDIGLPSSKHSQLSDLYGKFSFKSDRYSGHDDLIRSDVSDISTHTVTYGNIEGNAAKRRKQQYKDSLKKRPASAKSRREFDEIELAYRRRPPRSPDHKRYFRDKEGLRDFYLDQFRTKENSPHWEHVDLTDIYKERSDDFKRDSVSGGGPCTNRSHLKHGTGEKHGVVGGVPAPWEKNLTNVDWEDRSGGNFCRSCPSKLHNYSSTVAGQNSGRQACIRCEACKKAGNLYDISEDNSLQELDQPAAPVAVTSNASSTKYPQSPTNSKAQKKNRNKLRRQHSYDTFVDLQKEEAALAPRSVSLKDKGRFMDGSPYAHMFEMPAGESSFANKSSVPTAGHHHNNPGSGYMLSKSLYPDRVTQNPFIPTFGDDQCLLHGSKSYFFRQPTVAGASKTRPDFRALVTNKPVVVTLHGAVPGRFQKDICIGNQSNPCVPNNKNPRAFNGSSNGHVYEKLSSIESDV
Glutamate NMDA receptor; GRIN1/GRIN2B, sequence (Q13224 whole entry, other chains not shown): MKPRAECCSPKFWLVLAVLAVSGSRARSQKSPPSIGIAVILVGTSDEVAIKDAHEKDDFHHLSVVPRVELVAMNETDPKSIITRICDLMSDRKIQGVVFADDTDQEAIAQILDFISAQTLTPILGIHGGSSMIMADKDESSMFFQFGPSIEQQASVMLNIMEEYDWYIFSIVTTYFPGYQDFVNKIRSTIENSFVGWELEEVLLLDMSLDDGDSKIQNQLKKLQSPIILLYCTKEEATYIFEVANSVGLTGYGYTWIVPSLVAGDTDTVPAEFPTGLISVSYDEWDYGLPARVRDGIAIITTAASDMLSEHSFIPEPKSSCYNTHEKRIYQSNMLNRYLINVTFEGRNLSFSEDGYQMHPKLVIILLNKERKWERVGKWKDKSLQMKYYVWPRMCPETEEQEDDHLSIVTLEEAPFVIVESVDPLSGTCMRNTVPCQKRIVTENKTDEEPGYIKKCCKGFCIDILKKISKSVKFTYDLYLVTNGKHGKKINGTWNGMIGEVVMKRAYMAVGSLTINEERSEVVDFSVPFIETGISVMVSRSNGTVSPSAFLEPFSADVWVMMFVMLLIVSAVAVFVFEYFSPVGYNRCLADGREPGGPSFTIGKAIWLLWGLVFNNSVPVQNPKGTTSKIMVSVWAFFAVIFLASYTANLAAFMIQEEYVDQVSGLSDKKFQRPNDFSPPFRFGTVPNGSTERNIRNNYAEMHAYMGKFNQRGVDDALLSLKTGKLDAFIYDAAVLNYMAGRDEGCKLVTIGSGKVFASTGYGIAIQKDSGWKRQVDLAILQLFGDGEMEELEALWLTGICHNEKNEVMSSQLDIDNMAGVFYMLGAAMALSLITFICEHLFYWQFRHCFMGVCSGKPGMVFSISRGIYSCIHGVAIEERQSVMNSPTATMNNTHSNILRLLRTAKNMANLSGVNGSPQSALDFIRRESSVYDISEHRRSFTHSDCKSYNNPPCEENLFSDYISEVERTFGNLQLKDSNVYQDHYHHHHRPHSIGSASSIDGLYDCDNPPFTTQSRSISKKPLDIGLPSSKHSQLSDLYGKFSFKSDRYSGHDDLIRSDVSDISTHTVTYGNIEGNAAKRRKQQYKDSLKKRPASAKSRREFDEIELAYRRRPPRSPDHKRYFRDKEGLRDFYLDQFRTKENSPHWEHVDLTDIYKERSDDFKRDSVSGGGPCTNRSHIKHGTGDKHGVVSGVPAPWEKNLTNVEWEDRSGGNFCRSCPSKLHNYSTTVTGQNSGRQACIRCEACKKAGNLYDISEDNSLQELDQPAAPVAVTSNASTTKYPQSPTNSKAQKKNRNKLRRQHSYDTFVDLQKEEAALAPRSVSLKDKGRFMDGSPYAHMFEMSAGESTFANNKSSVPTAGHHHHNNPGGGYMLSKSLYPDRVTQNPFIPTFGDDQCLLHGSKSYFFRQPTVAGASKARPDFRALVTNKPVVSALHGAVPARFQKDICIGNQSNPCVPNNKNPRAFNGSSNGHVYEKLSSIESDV
Voltage-gated inwardly rectifying potassium channel KCNH2, sequence (Q12809 whole entry): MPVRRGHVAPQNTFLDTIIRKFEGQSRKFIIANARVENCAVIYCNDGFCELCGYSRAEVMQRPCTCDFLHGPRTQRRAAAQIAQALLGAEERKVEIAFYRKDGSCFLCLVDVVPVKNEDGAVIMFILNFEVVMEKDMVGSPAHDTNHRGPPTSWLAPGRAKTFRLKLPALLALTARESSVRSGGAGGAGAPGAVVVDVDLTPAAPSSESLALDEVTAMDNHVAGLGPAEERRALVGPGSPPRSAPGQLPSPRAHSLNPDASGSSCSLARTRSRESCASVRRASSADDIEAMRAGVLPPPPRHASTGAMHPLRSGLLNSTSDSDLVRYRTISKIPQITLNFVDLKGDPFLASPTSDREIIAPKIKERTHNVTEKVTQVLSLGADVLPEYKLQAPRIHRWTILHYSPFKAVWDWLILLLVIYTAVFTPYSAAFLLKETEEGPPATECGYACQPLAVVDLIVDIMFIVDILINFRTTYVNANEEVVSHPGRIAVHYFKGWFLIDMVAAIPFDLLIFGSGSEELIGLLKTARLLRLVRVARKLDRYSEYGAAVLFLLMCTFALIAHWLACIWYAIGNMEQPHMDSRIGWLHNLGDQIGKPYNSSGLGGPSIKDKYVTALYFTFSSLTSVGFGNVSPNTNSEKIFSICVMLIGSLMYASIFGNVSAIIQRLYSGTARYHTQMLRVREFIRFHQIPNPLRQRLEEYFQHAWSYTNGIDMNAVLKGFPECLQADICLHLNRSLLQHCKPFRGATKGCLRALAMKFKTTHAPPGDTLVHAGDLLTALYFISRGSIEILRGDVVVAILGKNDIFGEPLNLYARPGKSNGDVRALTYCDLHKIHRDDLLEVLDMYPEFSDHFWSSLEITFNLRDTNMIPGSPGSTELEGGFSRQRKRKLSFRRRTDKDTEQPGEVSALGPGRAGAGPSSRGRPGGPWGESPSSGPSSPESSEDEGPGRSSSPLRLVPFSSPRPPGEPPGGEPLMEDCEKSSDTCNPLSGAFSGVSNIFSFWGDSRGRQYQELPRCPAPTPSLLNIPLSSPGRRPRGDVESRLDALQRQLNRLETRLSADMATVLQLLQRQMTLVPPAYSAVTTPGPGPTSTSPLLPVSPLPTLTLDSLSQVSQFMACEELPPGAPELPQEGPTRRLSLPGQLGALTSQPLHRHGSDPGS

Row | SMILES | IC50 [1] [nM] | Ki [2] [nM] | efflux ratio at 1 h, 5 µM (MDR1 (P-gp)) | IC50 (Cytochrome P450 2C19) [nM] | solubility thermodynamic [4] [µM] | solubility thermodynamic [5] [µM] | IC50 (Cytochrome P450 1A2) [nM] | IC50 (Cytochrome P450 2C8) [nM] | IC50 (Cytochrome P450 2C9) [nM] | IC50 (Cytochrome P450 2D6) [nM] | IC50 (Cytochrome P450 3A4) [nM] | hepatic extraction ratio [6] | hepatic extraction ratio [7] | IC50 [3] [nM]
1 | FC(F)Oc1cc(-n2cc(COc3ccncn3)nn2)ccc1Cl | 840 | 900 | 1.1 | – | – | – | – | – | – | – | – | – | – | –
2 | FC(F)Oc1cc(-n2cc(COc3cncnc3)nn2)ccc1Cl | 2500 | 1800 | – | – | – | – | – | – | – | – | – | – | – | –
3 | FC(F)Oc1cc(-n2cc(COc3cccnn3)nn2)ccc1Cl | 580 | 1870 | – | – | – | – | – | – | – | – | – | – | – | –
4 | Cc1cnc(OCc2cn(-c3ccnc(C)c3)nn2)nc1 | 770 | 1900 | 1.2 | – | 560 (≈ 158 µg/mL) | 530 (≈ 150 µg/mL) | – | – | – | – | – | – | – | –
5 | FC(F)Oc1cc(-n2cc(COc3cnccn3)nn2)ccc1Cl | 600 | 680 | 0.91 | – | – | – | – | – | – | – | – | – | – | –
6 | FC(F)Oc1cc(-n2cc(CNc3ncco3)nn2)ccc1Cl | 390 | 810 | 1.5 | – | – | – | 3400 | – | – | – | – | – | – | > 10000
7 | Cc1cnc(OCc2nnn(-c3cccc(C(F)F)c3)c2C)nc1 | 1200 | 3500 | – | – | 210 (≈ 69.6 µg/mL) | 320 (≈ 106 µg/mL) | – | – | – | – | – | – | – | –
8 | Fc1cccnc1OCc1cn(C2CCC(Cl)C(OC(F)F)C2)nn1 (stereo not drawn) | 130 | 889 | – | 5300 | – | – | 5200 | – | – | 2200 | – | – | – | –

These reach a lower Ki [2]. Values come first.

Row | IC50 [1] [nM] | Ki [2] [nM] | efflux ratio at 1 h, 5 µM (MDR1 (P-gp)) | IC50 (Cytochrome P450 2C19) [nM] | solubility thermodynamic [4] [µM] | solubility thermodynamic [5] [µM] | IC50 (Cytochrome P450 1A2) [nM] | IC50 (Cytochrome P450 2C8) [nM] | IC50 (Cytochrome P450 2C9) [nM] | IC50 (Cytochrome P450 2D6) [nM] | IC50 (Cytochrome P450 3A4) [nM] | hepatic extraction ratio [6] | hepatic extraction ratio [7] | SMILES | IC50 [3] [nM]
9 | 500 | 630 | 1 | 7900 | – | – | – | – | – | – | – | – | – | FC(F)Oc1cc(-n2cc(CNc3ccccn3)nn2)ccc1Cl | 8000
10 | 8.3 | 13 | 0.9 | – | 92 (≈ 32.3 µg/mL) | 70 (≈ 24.6 µg/mL) | – | – | – | – | – | – | – | Cc1ccnc(OCc2cn(-c3ccc(F)c(OC(F)F)c3)nn2)n1 | > 10000
11 | 25 | 65 | – | – | 17 (≈ 5.39 µg/mL) | 22 (≈ 6.98 µg/mL) | – | – | – | – | – | – | – | Cc1cnc(OCc2cn(-c3cccc(C(F)F)c3)nn2)nc1 | > 10000
12 | 59 | 35 | 3.9 | 420 | – | – | 110 | 3400 | 1100 | 30 | 2600 | – | – | FC(F)Oc1cc(-n2cc(Cn3ccnc3)nn2)ccc1Cl | > 10000
13 | 7.8 | 10 | 7.7 | – | > 400 | 24 (≈ 8.79 µg/mL) | – | – | – | – | – | – | – | CNc1ccnc(OCc2cn(-c3ccc(F)c(OC(F)F)c3)nn2)n1 | > 10000
14 | 11 | 6.8 | 1 | – | 11 (≈ 4.32 µg/mL) | < 4 | – | – | – | – | – | – | – | Fc1ccc(-n2cc(COc3ncc(N4CCC4)cn3)nn2)cc1OC(F)F | > 10000
15 | 16 | 44 | 3 | – | 560 (≈ 207 µg/mL) | 28 (≈ 10.4 µg/mL) | – | – | – | – | – | – | – | Nc1nc(OCc2cn(-c3ccc(F)c(OC(F)F)c3)nn2)ncc1F | > 10000
16 | 16 | 14 | 2.6 | – | > 400 | < 4 | – | – | – | – | – | – | – | Fc1ccc(-n2cc(COc3nccc(N4CC(F)C4)n3)nn2)cc1OC(F)F | > 10000
17 | 360 | 560 | 1.1 | > 10000 | – | – | > 10000 | > 10000 | > 10000 | > 10000 | > 10000 | – | – | FC(F)Oc1cc(-n2cc(CNc3ncccn3)nn2)ccc1Cl | > 10000
18 | – | 67 | – | – | – | – | – | – | – | – | – | 0.59 | < 0.17 | C[C@@H](Oc1ncccn1)c1cn(-c2ccc(Cl)c(OC(F)F)c2)nn1 | –
19 | 1.9 | 1.3 | – | – | – | – | – | – | – | – | – | 0.83 | 0.51 | Cc1cnc(OCc2cn(-c3ccc(Cl)c(OC(F)F)c3)nn2)nc1 | 5600
20 | 49 | 57 | 11.8 | – | 560 (≈ 221 µg/mL) | 510 (≈ 202 µg/mL) | – | – | – | – | – | – | – | CC(C)(O)c1cnc(OCc2cn(-c3ccc(F)c(OC(F)F)c3)nn2)nc1 | > 10000
